According to the supplement of paper PMC11061612:

How the values were obtained:
[1] = system: TT (Thyroid Gland Carcinoma); test: combination Emax (second highest fraction inhibited in the dose matrix, 72 h); higher = more inhibition; extreme values may be limits of the assay
In short: (§1)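 After 24 hours at 37°C and 5% CO2 in 1536-well plates, cells in DMEM/F12 or RPMI plus 10% FBS received two-drug dose matrices for 72 hours. Viability came from CellTiter-Glo 2.0 luminescence and was scaled as inhibition, anchored at 0 by vehicle wells and at 1 by blank wells. Combination Emax is taken as the second-highest inhibition in the matrix, and Bliss excess as the observed combination effect less EA + EB − EA·EB, with EA and EB the single-agent effects.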

[2] = system: COLO-320-HSR (Colorectal Carcinoma); test: as above
In short: as §1

[3] = system: NCI-H2066 (Squamous Cell Lung Carcinoma); test: as above
In short: as §1

[4] = system: PANC-10-05 (Pancreatic Carcinoma); test: as above
In short: as §1

[5] = system: ONS-76 (Other Solid Carcinomas); test: as above
In short: as §1

[6] = system: KARPAS-422 (B-Cell Non-Hodgkin's Lymphoma); test: as above
In short: as §1

[7] = system: VCaP (Prostate Carcinoma); test: as above
In short: as §1

[8] = system: CCK-81 (Colorectal Carcinoma); test: as above
In short: as §1

[9] = system: BICR22 (Oral Cavity Carcinoma); test: as above
In short: as §1

[10] = system: FU97 (Gastric Carcinoma); test: as above
In short: as §1

[11] = system: NCI-H64 (Small Cell Lung Carcinoma); test: as above
In short: as §1

[12] = system: ECC10 (Gastric Carcinoma); test: as above
In short: as §1

[13] = system: NCI-H1581 (Non-Small Cell Lung Carcinoma); test: as above
In short: as §1

[14] = system: NCI-H1666 (Lung Adenocarcinoma); test: as above
In short: as §1

[15] = system: NY (Osteosarcoma); test: as above
In short: as §1

[16] = system: U-2-OS (Osteosarcoma); test: as above
In short: as §1

[17] = system: IGR-37 (Melanoma); test: as above
In short: as §1

[18] = system: CAPAN-2 (Pancreatic Carcinoma); test: as above
In short: as §1

[19] = system: TT (Thyroid Gland Carcinoma); test: Bliss excess, mean over the matrix (fraction); higher = more synergy
In short: as §1

[20] = system: COLO-320-HSR (Colorectal Carcinoma); test: as above
In short: as §1

[21] = system: NCI-H2066 (Squamous Cell Lung Carcinoma); test: as above
In short: as §1

[22] = system: PANC-10-05 (Pancreatic Carcinoma); test: as above
In short: as §1

[23] = system: ONS-76 (Other Solid Carcinomas); test: as above
In short: as §1

[24] = system: KARPAS-422 (B-Cell Non-Hodgkin's Lymphoma); test: as above
In short: as §1

[25] = system: VCaP (Prostate Carcinoma); test: as above
In short: as §1

[26] = system: CCK-81 (Colorectal Carcinoma); test: as above
In short: as §1

[27] = system: BICR22 (Oral Cavity Carcinoma); test: as above
In short: as §1

[28] = system: FU97 (Gastric Carcinoma); test: as above
In short: as §1

[29] = system: NCI-H64 (Small Cell Lung Carcinoma); test: as above
In short: as §1

[30] = system: ECC10 (Gastric Carcinoma); test: as above
In short: as §1

[31] = system: NCI-H1581 (Non-Small Cell Lung Carcinoma); test: as above
In short: as §1

[32] = system: NCI-H1666 (Lung Adenocarcinoma); test: as above
In short: as §1

[33] = system: NY (Osteosarcoma); test: as above
In short: as §1

[34] = system: U-2-OS (Osteosarcoma); test: as above
In short: as §1

[35] = system: IGR-37 (Melanoma); test: as above
In short: as §1

[36] = system: CAPAN-2 (Pancreatic Carcinoma); test: as above
In short: as §1
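Wherever Bliss excess, mean over the matrix is given: after 72 h of two-drug dosing.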

SMILES	combination Emax [1]	combination Emax [2]	combination Emax [3]	combination Emax [4]	combination Emax [5]	combination Emax [6]	combination Emax [7]	combination Emax [8]	combination Emax [9]	combination Emax [10]	combination Emax [11]	combination Emax [12]	combination Emax [13]	combination Emax [14]	combination Emax [15]	combination Emax [16]	combination Emax [17]	combination Emax [18]	Bliss excess [19]	Bliss excess [20]	Bliss excess [21]	Bliss excess [22]	Bliss excess [23]	Bliss excess [24]	Bliss excess [25]	Bliss excess [26]	Bliss excess [27]	Bliss excess [28]	Bliss excess [29]	Bliss excess [30]	Bliss excess [31]	Bliss excess [32]	Bliss excess [33]	Bliss excess [34]	Bliss excess [35]	Bliss excess [36]
CN(CCO)CC[C@H](CSc1ccccc1)Nc1ccc(S(=O)(=O)NC(=O)c2ccc(N3CCC([C@@H](O)c4ccccc4-c4ccc(Cl)cc4)CC3)cc2)cc1S(=O)(=O)C(F)(F)F [AZD4320] + CC(=O)O[C@H]1C(=O)[C@@]2(C)[C@H]([C@H](OC(=O)c3ccccc3)[C@]3(O)C[C@H](OC(=O)[C@H](O)[C@@H](NC(=O)c4ccccc4)c4ccccc4)C(C)=C1C3(C)C)[C@]1(OC(C)=O)CO[C@@H]1C[C@@H]2O [Paclitaxel] (first compound max 1 µM, 7x7, partner max 3 µM)	0.665	0.791	0.856	0.64	0.919	0.999	0.881	1	0.981	0.433	1	1	0.99	0.841	0.981	0.922	0.938	0.853	0.184	0.0041	0.124	-0.0275	0.0661	0.141	0.0175	-0.0433	-0.0024	0.101	0.237	0.0272	0.0126	0.112	-0.0067	0.0272	-0.0174	0.0494
CN(CCO)CC[C@H](CSc1ccccc1)Nc1ccc(S(=O)(=O)NC(=O)c2ccc(N3CCC([C@@H](O)c4ccccc4-c4ccc(Cl)cc4)CC3)cc2)cc1S(=O)(=O)C(F)(F)F [AZD4320] + Nc1ccn([C@@H]2O[C@H](CO)[C@@H](O)C2(F)F)c(=O)n1 [Gemcitabine] (first compound max 1 µM, 7x7, partner max 0.3 µM)	0.615	0.569	0.338	0.582	0.724	0.97	0.547	0.589	0.95	0.349	0.998	1	0.482	0.501	0.966	0.501	0.872	0.586	0.0159	-0.078	-0.0764	0.0148	0.003	0.067	-0.0098	-0.0153	-0.0171	0.0132	0.0845	0.0147	0.0326	-0.0121	0.0595	0.0048	0.0268	-0.0009
Cc1c2c(nn1C)CSCc1cc(n(C)n1)CSc1cc(c3ccccc3c1)OCCCc1c(C(=O)O)n(C)c3c-2c(Cl)ccc13 [AZD5991] + CC(=O)O[C@H]1C(=O)[C@@]2(C)[C@H]([C@H](OC(=O)c3ccccc3)[C@]3(O)C[C@H](OC(=O)[C@H](O)[C@@H](NC(=O)c4ccccc4)c4ccccc4)C(C)=C1C3(C)C)[C@]1(OC(C)=O)CO[C@@H]1C[C@@H]2O [Paclitaxel] (first compound max 1 µM, 7x7, partner max 3 µM)	0.26	0.991	0.589	0.569	0.644	0.996	0.977	0.989	0.98	0.257	0.719	0.942	1	0.563	0.963	0.735	0.885	0.144	-0.0423	-0.0443	-0.027	0.0368	-0.0383	0.0084	0.0074	-0.0396	0.0021	-0.0142	0.0573	-0.0567	0.0114	-0.0239	0.0268	-0.0291	0.0439	0.0086
Cc1c2c(nn1C)CSCc1cc(n(C)n1)CSc1cc(c3ccccc3c1)OCCCc1c(C(=O)O)n(C)c3c-2c(Cl)ccc13 [AZD5991] + CS(=O)(=O)CCNCc1ccc(-c2ccc3ncnc(Nc4ccc(OCc5cccc(F)c5)c(Cl)c4)c3c2)o1 [Lapatinib] (first compound max 1 µM, 7x7, partner max 10 µM)	0.237	1	0.426	0.474	0.294	0.965	0.96	1	0.969	0.906	0.111	0.975	0.968	0.942	0.564	0.197	0.36	0.186	0.0128	0.0422	-0.0195	-0.0585	-0.0232	-0.0425	-0.0052	0.055	0.0948	-0.0583	-0.0332	0.0088	-0.0138	0.0641	-0.0523	-0.0345	-0.0622	-0.0087
Cc1c2c(nn1C)CSCc1cc(n(C)n1)CSc1cc(c3ccccc3c1)OCCCc1c(C(=O)O)n(C)c3c-2c(Cl)ccc13 [AZD5991] + Nc1ccn([C@@H]2O[C@H](CO)[C@@H](O)C2(F)F)c(=O)n1 [Gemcitabine] (first compound max 1 µM, 7x7, partner max 0.3 µM)	0.405	0.944	0.184	0.472	0.499	0.979	0.977	0.942	0.957	0.232	0.37	0.935	0.998	0.473	0.88	0.387	0.79	0.101	-0.0048	-0.0386	-0.0415	-0.0263	0.0088	-0.0219	0.0667	0.0013	-0.0254	0.0193	0.0292	0.0593	0.0459	-0.0299	-0.0564	-0.0017	0.011	-0.035
C[C@@H]1COCCN1c1cc(C2([S@](C)(=N)=O)CC2)nc(-c2ccnc3[nH]ccc23)n1 [AZD6738] + C1CC(C1)(C(=O)[O-])C(=O)[O-].N.N.[Pt+2] [Carboplatin] (first compound max 10 µM, 7x7, partner max 10 µM)	0.442	0.495	0.412	0.477	0.814	0.434	0.48	0.886	0.804	0.349	0.793	0.397	0.281	0.304	0.568	0.511	0.616	0.159	-0.0108	-0.036	-0.0715	-0.0611	-0.0512	-0.0683	-0.0644	-0.0429	-0.0297	-0.0215	-0.0431	-0.0097	-0.0399	-0.0814	-0.0504	-0.0234	-0.0539	-0.0168
Cc1cc2ncnn2cc1Nc1ncc2c(n1)n(C1CCOCC1)c(=O)n2C [AZD7648] + COc1cc([C@@H]2c3cc4c(cc3[C@@H](O[C@@H]3O[C@@H]5CO[C@@H](C)O[C@H]5[C@H](O)[C@H]3O)[C@H]3COC(=O)[C@H]23)OCO4)cc(OC)c1O [Etoposide] (first compound max 10 µM, 7x7, partner max 10 µM)	0.431	0.606	0.332	0.636	0.748	0.884	0.579	0.565	0.856	0.298	0.316	0.913	0.787	0.401	0.654	0.647	0.703	0.186	0.0627	0.0573	-0.03	0.0148	0.0815	-0.0391	0.0464	0.093	0.13	-0.0016	-0.0142	0.108	0.0368	0.0131	0.0475	0.0528	0.0178	0.0103
